Experimental data from US4889926A, “Method for the synthesis of (2"R)-4'-O-tetra-hydropyranyladriamycim using 14-chloro-daunomycin as an intermediate” (priority 1987, dated 1989).
Values after ≈ are worked out from the molar mass of the structure shown. Where two headings read alike, the source gives them in different places.

Columns and labels:
[1] = tested on: tumor; settings: Japanese patent publication No. 47194/81 and U.S. Pat. No. 4,303,785; cited from earlier work
[2] = Storage stability in solid state; assay type: physicochemical; settings: -10° C.
Excerpt: In the above-mentioned known processes for the preparation of (2"R)-4'-O-THPADM of formula (A) in which daunomycin (DM) of formula (II) is used as the starting compound, and which are effected via the 14-bromodaunomycin of formula (V) as the intermediate product (namely the processes of the aforesaid Japanese patent application first publication "Kokai" Nos. 104,299/80 and 156,300/81), there are formed great amounts of the undesired by-products in the tetrahydropyranylation step so that the intended final compound can be obtained only in a low yield with these prior art processes. The intermediate compound, 14-bromodaunomycin is so unstable that even when it has been stored in its solid state at -10° C. for about 1 week, 14-bromodaunomycin can remain only in such an amount which is as little as about two-thirds of its initial amount before its storage, due to that the amino sugar moiety bonded to the 7-position can be cleaved to bring about the degradation of 14-bromodaunomycin.

[3] = tested on: murine leukemia P-388 cells (resistant to adriamycin); test: Growth inhibition by MTT assay, P-388 resistant to adriamycin; assay type: cell-based; settings: Mus musculus, read-out: IC50 value (50% growth inhibitory concentration), P-388 resistant to adriamycin
Method: (§1) Antitumor activities of 14-chlorodaunomycin against various experimental tumors, including murine leukemia P-388 cells, murine leukemia P-388 cells (resistant to adriamycin), murine melanoma B16 cells, human lung cancer PC14 cells and murine leukemia L-1210 cells, were tested and evaluated in vitro by the following procedure:
(§2) The tumor cells were cultivated in RPMI 1640 medium supplemented with 10% fetal calf serum, 10μM 2-hydroxyethyldisulfide and kanamycin at 50 μg/ml (the growth medium), under air containing 5% CO2 at 37° C.
(§3) The tumor cells were incubated at initial densities of 1.5×10^4 cells/ml with murine melanoma B16; 2×10^4 cells/ml with murine leukemia P388, P388/ADR and L-1210; and 2.5×10^4 cells/ml with human lung cancer PC14 cells in the growth medium further containing graded concentrations of each test compound, for 72 hours. The IC50 value, namely the 50% growth inhibitory concentration of the tested compound was evaluated by MTT assay method (see Mosmann, T; "J. Immunol. Methods", 65, 55-63 (1983).

[4] = tested on: murine leukemia L-1210 cells; test: Growth inhibition by MTT assay, L-1210; assay type: cell-based; settings: Mus musculus, read-out: IC50 value (50% growth inhibitory concentration), L-1210
Method: as §1, §2, §3

[5] = tested on: human lung cancer PC14 cells; test: Growth inhibition by MTT assay, PC14; assay type: cell-based; settings: read-out: IC50 value (50% growth inhibitory concentration), PC14
Method: as §1, §2, §3

[6] = tested on: various kinds of experimental tumors; test: Antitumor activity against various experimental tumors (in words); assay type: cell-based
Method: as §1, with “procedure: […]” for “procedure:”

[7] = tested on: murine melanoma B16 cells; test: Growth inhibition by MTT assay, B16; assay type: cell-based; settings: Mus musculus, read-out: IC50 value (50% growth inhibitory concentration), B16
Method: as §1, §2, §3

[8] = Stability in solution in an organic solvent; assay type: physicochemical
[9] = tested on: murine leukemia P-388 cells; test: Growth inhibition by MTT assay, P-388; assay type: cell-based; settings: Mus musculus, read-out: IC50 value (50% growth inhibitory concentration), P-388
Method: as §1, §2, §3

[10] = P388/ADR, 72 hours, MTT assay, 2×10^4 cells/ml
[11] = L1210, L-1210, 72 hours, MTT assay, 2×10^4 cells/ml
[12] = PC-14, PC14, 72 hours, MTT assay, 2.5×10^4 cells/ml
[13] = B16, 72 hours, MTT assay, 1.5×10^4 cells/ml
[14] = P388, P-388, 72 hours, MTT assay, 2×10^4 cells/ml

In the case of `COc1cccc2c1C(=O)c1c(O)c3c(c(O)c1C2=O)C[C@@](O)(C(=O)CO)C[C@@H]3O[C@H]1C[C@H](N)[C@H](O[C@@H]2CCCCO2)[C@H](C)O1` [4'-O-tetrahydropyranyladriamycin], the antitumor activity [1] is listed as “has antitumor activity”.

For `COc1cccc2c1C(=O)c1c(O)c3c(c(O)c1C2=O)C[C@@](O)(C(=O)CBr)C[C@@H]3O[C@H]1C[C@H](N)[C@H](O)[C@H](C)O1` [14-bromodaunomycin], the “amount remaining of its initial amount after storage” value ([2]; 14-bromodaunomycin (comparator intermediate), solid state, about 1 week) was “about two-thirds”.

With `COc1cccc2c1C(=O)c1c(O)c3c(c(O)c1C2=O)C[C@@](O)(C(=O)CCl)C[C@@H]3O[C@H]1C[C@H](N)[C@H](O)[C@H](C)O1` [14-chlorodaunomycin] the IC50 ([3]; P388, 72 h) was 0.552 µg/mL (≈ 0.982 µM), the decomposition on storage ([2]; solid form, 1 week or so) was “no substantial decomposition” and the IC50 ([4]; L1210, 72 h) was 0.268 µg/mL (≈ 0.477 µM). For the same molecule, the IC50 ([5]; PC-14, 72 h) was 0.96 µg/mL (≈ 1.71 µM), the antitumor activity [6] was “remarkable antitumor activity” and the IC50 ([7]; B16, 72 h) was 0.093 µg/mL (≈ 0.165 µM). The “decomposition rate in solution compared with 14-bromodaunomycin” value ([8]; organic solvent containing some water and an acidic compound, same conditions) was “considerably smaller than that of 14-bromodaunomycin”, the “stability in solution in an organic solvent” value ([8]; solution in an organic solvent) was “somewhat stable” and the IC50 ([9]; P388, 72 h) was 0.0963 µg/mL (≈ 0.171 µM).

`COc1cccc2c1C(=O)c1c(O)c3c(c(O)c1C2=O)C[C@@](O)(C(=O)CO)C[C@@H]3O[C@H]1C[C@H](N)[C@H](O)[C@H](C)O1` [Adriamycin, adriamycin] gave an IC50 [3, 10] of 2.06 µg/mL (≈ 3.79 µM), an IC50 [4, 11] of 0.154 µg/mL (≈ 0.283 µM) and an IC50 [5, 12] of 0.765 µg/mL (≈ 1.41 µM). For the same molecule, the IC50 [7, 13] was 0.101 µg/mL (≈ 0.186 µM) and the IC50 [9, 14] was 0.033 µg/mL (≈ 0.0607 µM).

For `COc1cccc2c1C(=O)c1c(O)c3c(c(O)c1C2=O)C[C@@](O)(C(C)=O)C[C@@H]3O[C@H]1C[C@H](N)[C@H](O)[C@H](C)O1` [Daunomycin, daunomycin], the IC50 [3, 10] was 0.668 µg/mL (≈ 1.27 µM), the IC50 [4, 11] was 0.0655 µg/mL (≈ 0.124 µM) and the IC50 [5, 12] was 0.237 µg/mL (≈ 0.449 µM). For the same molecule, the IC50 [7, 13] was 0.0449 µg/mL (≈ 0.0851 µM) and the IC50 [9, 14] was 0.0163 µg/mL (≈ 0.0309 µM).
